Legend:
[1] = tested on: CA-46 (lymphoma) cells; experiment: Whole cell checkpoint abrogation assay (CHK1 Mitotic Index ELISA); type: cell-based; details: @ 1 μM
Protocol: To examine the in vitro effects of CHK1 inhibitory compounds, an ELISA assay can be designed to monitor the abrogation of DNA damage-induced checkpoint control. The assay can be based on the trapping and detection of mitotic cells following DNA damage-induced arrest.
CA-46 (lymphoma) cells can be treated with a DNA damaging agent, such as camptothecin (Sigma), at 50 nM for 8 hours to induce DNA damage. The control compound or CHK1 inhibitor can be then added at increasing concentrations with Nocodazole (Sigma) at 0.1 μg/ml and plates can be incubated for 16 hours. Control cells, where only CHK1 inhibitors can be added, can be prepared as well to assure that the inhibitors alone have no effect on the cell cycle. The cells can be then harvested, washed with PBS, and crude acid extraction can be performed. Pellets can be resuspended in 80 μl of Acid Extraction Buffer (10 mM Hepes pH 7.9, 1.5 mM MgCl2, 10 mM KCl, 0.5 mM DTT, 1.5 mM PMSF, 0.4N sulfuric acid), vortexed briefly, and incubated for 30 minutes on ice. Samples can be then centrifuged and 75 μl of the supernatant can be transferred to a 96 well flat-bottom plate (VWR 3596). Next 15 μl Neutralizing Cocktail (# of samples×(10 μl 10N NaOH+5 μl 1M Tris Base) can be added to each well, and after mixing, 5 μl of this can be transferred to another 96 well plate with 100 μl 50 mM Tris base (pH 9.6) in each well. Samples can be dried overnight. The wells can be then washed with 200 μl ELISA wash buffer (PBS with 20 mM Tris pH 7.5, 0.05% Tween 20) 5 times and blocked with 200 μl blocking buffer (PBS with 20 mM Tris pH 7.5, 0.05% Tween 20, 3.5% Dry milk, 1.5% BSA. pH to 7.5 after preparation) for 1 hour at room temperature. Following wash and block, anti-phospho Histone H3 antibodies (Upstate USA, Inc., rabbit polyclonal) can be added at 0.5 μg/ml in block (100 μl per well) and incubated for 2 hours at room temperature. Wells can be washed again to remove unbound primary antibody and 100 μl alkaline phosphatase conjugated secondary antibodies at 0.3 mg/ml (Pierce, goat anti-rabbit IgG ([…]+L)) in block can be added for 1 hour at room temp. Wells can be washed 5 times to remove unbound secondary antibody, and washed again 3 times with PBS alone to remove detergents. Then 100 μl alkaline phosphatase substrate (Pierce 1-Step pNPP) can be added to wells. Plates can be protected from light and incubated at room temp for 1 hour. The OD can be read on Molecular Devices Vmax Kinetic Microplate Reader at 405 nm. The ratio of the OD (optical density) of a compound treated sample to the Nocodazole only treated sample (about 100% mitotic or abrogation) can be expressed in a percentage, and quantifies the percent abrogation of the checkpoint. The concentration at which a compound causes 50% abrogation of the checkpoint can be called the EC50. The raw OD values can be graphed in Excel, and an EC50 value can be generated using Kaleidograph software. Strong signal results from Nocodazole only treated cells, and equals 100% mitosis in this assay. Camptothecin+Nocodazole treated control samples have low signal, signifying no mitosis and therefore, no checkpoint abrogation. When potent CHK1 inhibitors are added to Camptothecin treated cells with Nocodazole, a high signal can be generated (generally in a dose dependent manner), due to the checkpoint abrogation activity caused by the combination treatment.

[2] = molecular target: T1, full-length human CHK1 (FL-CHK1) (Homo sapiens, UniProt O14757); experiment: FL-CHK1 assay (coupled spectrophotometric, Syntide-2); type: biochemical; details: FL-CHK1, 0.15 mM ATP
T1 construct: C-terminally His-tagged full-length human CHK1 (FL-CHK1); 6xHis (C); made in house
T1 sequence (O14757 1-476): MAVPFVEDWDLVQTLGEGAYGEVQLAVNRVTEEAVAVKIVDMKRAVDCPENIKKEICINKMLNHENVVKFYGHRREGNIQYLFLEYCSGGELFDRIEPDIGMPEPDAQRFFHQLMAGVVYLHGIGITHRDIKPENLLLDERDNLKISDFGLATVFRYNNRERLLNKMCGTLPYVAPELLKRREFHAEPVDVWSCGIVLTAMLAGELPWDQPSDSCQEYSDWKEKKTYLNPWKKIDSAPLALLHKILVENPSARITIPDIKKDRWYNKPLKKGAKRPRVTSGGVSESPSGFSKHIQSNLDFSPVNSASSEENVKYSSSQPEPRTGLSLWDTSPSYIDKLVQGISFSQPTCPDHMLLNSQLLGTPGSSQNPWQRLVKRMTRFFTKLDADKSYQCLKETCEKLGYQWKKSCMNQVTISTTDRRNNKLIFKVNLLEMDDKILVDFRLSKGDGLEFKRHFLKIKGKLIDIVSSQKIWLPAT
Description: C-terminally His-tagged full-length human CHK1 (FL-CHK1) was expressed using the baculovirus/insect cell system. It contains 6 histidine residues (6 x His-tag) at the C-terminus of the 476 amino acid human CHK1. The protein was purified by conventional chromatographic techniques.
The production of ADP from ATP that accompanies phosphoryl transfer to the synthetic substrate peptide Syntide-2 (PLARTLSVAGLPGKK) was coupled to oxidation of NADH using phosphoenolpyruvate (PEP) through the actions of pyruvate kinase (PK) and lactic dehydrogenase (LDH). The oxidation of NADH was monitored by following the decrease of absorbance at 340 nm (ε340=6.22 cm^−1 mM^−1) using a HP8452 spectrophotometer. Typical reaction solutions contained: […] PEP; 0.15 mM NADH; 28 units of LDH/mL; 16 units of PK/mL; 3 mM DTT; 0.125 mM Syntide-2; 0.15 mM ATP; 25 mM MgCl2 in 50 mM TRIS, pH 7.5; and 400 mM NaCl. Assays were initiated with 10 nM of FL-CHK1. Ki values were determined by measuring initial enzyme activity in the presence of varying concentrations of test compounds. The data were analyzed using Enzyme Kinetic and Kaleidagraph software. […]

Ki [2]: 1 to 10 nM
SMILES: Oc1ccc(-c2ccc(-c3cc(Nc4ccc(CNC5CC5)nc4)n[nH]3)cc2)c(O)c1 [Example 24, 4′-[5-({6-[(cyclopropylamino)methyl]pyridin-3-yl}amino)-1H-pyrazol-3-yl]-1,1′-biphenyl-2,4-diol]
percent abrogation of the checkpoint [1]: 1% @ 1 μM
